Source: patent US20230158025A1 (UNIVERSITY OF UTAH RESEARCH FOUNDATION, priority 2020, published 2023)
Like-named read-outs stand apart in the source and are kept apart here.

Tests used:
[1] = biological target: recombinant human GALK1 (Homo sapiens, UniProt P51570); assay: hGALK1 biochemical activity assay (Kinase-Glo Plus, ATP depletion)
Procedure, shortened: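 Turnover is measured as ATP depletion by Kinase-Glo Plus luminescence after a 1 h room-temperature reaction. Compounds span 11 concentrations, 57.4 μM–0.97 nM, in final 20 mM HEPES pH 8.0 with 5 mM MgCl2. The substrate solution held 35 μM ATP; the added solution held 5 nM human or mouse GALK1 and 100 μM galactose.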

[2] = biological target: recombinant mouse GALK1 (Mus musculus, UniProt Q9R0N0); assay: mGALK1 biochemical activity assay (Kinase-Glo Plus, ATP depletion)
Sequence of recombinant mouse GALK1 (Q9R0N0 whole entry): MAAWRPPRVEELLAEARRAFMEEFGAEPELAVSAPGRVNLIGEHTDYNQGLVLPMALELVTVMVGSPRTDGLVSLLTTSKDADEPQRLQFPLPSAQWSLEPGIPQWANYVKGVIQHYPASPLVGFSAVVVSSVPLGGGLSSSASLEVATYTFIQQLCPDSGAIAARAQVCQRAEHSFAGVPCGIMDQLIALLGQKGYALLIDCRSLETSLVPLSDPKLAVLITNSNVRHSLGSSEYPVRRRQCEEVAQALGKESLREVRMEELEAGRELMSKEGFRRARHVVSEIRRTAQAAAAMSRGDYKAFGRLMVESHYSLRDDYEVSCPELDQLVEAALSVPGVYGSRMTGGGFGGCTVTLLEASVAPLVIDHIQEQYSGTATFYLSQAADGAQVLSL
Procedure, shortened: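 Recombinant GALK1 (5 nM) with 100 μM galactose; GALK1 turnover read as ATP depletion by Kinase-Glo Plus luminescence. Reaction ran 1 h at room temperature before detection reagent was added.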

[3] = PAMPA permeability
[4] = aqueous kinetic solubility
[5] = rat microsomal stability (RLM)
[6] = Tables 2-15, 35 μM ATP, 100 μM galactose, 1 h, bracketed figure after some values (e.g. −1.2) is undefined and not reported, read-out: hGALK IC50
[7] = recombinant human GALK1, Kinase-Glo Plus ATP depletion, read-out: hGALK
[8] = Tables 2-15, 35 μM ATP, 100 μM galactose, 1 h, bracketed figure after some values is undefined and not reported, read-out: mGALK IC50
[9] = recombinant mouse GALK1, Kinase-Glo Plus ATP depletion, read-out: mGALK
[10] = recombinant human GALK1, Kinase-Glo Plus ATP depletion, bracketed figure in the cell, e.g. (−1.2), is not defined in the text shown, read-out: hGALK
[11] = recombinant mouse GALK1, Kinase-Glo Plus ATP depletion, bracketed figure in the cell, e.g. (−1.2), is not defined in the text shown, read-out: mGALK
[12] = microsomal stability half-life, minutes

Sequence of recombinant human GALK1 (P51570 whole entry): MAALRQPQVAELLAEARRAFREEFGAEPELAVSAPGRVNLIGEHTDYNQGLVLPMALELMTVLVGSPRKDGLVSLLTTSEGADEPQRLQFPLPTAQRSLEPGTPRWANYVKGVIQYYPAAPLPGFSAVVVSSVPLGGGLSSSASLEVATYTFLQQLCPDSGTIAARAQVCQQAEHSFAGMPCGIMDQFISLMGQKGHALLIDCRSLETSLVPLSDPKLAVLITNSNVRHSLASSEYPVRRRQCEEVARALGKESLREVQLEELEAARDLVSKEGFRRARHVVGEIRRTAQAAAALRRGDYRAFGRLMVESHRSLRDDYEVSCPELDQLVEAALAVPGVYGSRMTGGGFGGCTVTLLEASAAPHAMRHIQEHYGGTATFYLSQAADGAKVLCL

Structure (SMILES) | IC50 [1, 6] | IC50 [1, 7] | IC50 [2, 8] | IC50 [2, 9] | Perm. (1 × 10^−6 cm/sec) [3] | Sol. [4] | Metab. Stabil. (m) ([5]; microsomal half-life) | Perm. (1 × 10^−6 cm/sec) ([3]; PAMPA) | Sol. ([4]; aqueous kinetic solubility) | Metab. Stabil. (m) ([5]; microsomal stability half-life) | also measured
CC1=C(C(=O)Nc2cc(C(=O)O)ccn2)[C@@H](c2ccc(C)cc2Cl)N=C(Nc2nc3ccc(F)cc3o2)N1 [Compound 56, (S)-2-(4-(2-chloro-4-methylphenyl)-2-((6-fluorobenzo[d]oxazol-2-yl)amino)-6-methyl-1,4-dihydropyrimidine-5-carboxamido)isonicotinic acid] | 1.93 µM | 1.93 µM | 6.85 µM | 6.85 µM | <1 1 × 10^−6 cm/sec | 53.8 µg/mL | >30 m |  |  |  | 
COC(=O)c1ccnc(NC(=O)C2=C(C)NC(Nc3nc4ccccc4o3)=N[C@H]2c2ccccc2Cl)c1 [Compound 206, (R)-methyl 2-(2-(benzo[d]oxazol-2-ylamino)-4-(2-chlorophenyl)-6-methyl-1,4-dihydropyrimidine-5-carboxamido)isonicotinate] |  | 3.43 µM |  | 6.85 µM |  |  |  | 306.7 1 × 10^−6 cm/sec | <1 µg/mL | 19.99 m | 
CC1=C(C(=O)Nc2nncs2)C(c2ccc(C)cc2Cl)N=C(Nc2nc3ccccc3o2)N1 (centres unmarked) [Compound 264, 2-(benzo[d]oxazol-2-ylamino)-4-(2-chloro-4-methylphenyl)-6-methyl-N-(1,3,4-thiadiazol-2-yl)-1,4-dihydropyrimidine-5-carboxamide] |  |  |  |  |  |  |  | <14.4 1 × 10^−6 cm/sec | <1 µg/mL |  | IC50 [1, 10]: 3.06 µM; IC50 [2, 11]: 6.11 µM; Metab. Stabil. (m) [5, 12]: >30 m
CC1=C(S(C)(=O)=O)C(c2ccccc2Cl)N=C(Nc2nc3ccccc3o2)N1 (centres unmarked) [Compound 243, N-(4-(2-chlorophenyl)-6-methyl-5-(methylsulfonyl)-1,4-dihydropyrimidin-2-yl)benzo[d]oxazol-2-amine] |  | 13.7 µM |  | 19.3 µM |  |  |  | 42.78 1 × 10^−6 cm/sec | <1 µg/mL | 9.37 m | 
COc1ccc([C@@H]2N=C(Nc3nc4cccc(N)c4o3)NC(C)=C2C(=O)Nc2cc(C(=O)O)ccn2)c(Cl)c1 [Compound 87, (R)-2-(2-((7-aminobenzo[d]oxazol-2-yl)amino)-4-(2-chloro-4-methoxyphenyl)-6-methyl-1,4-dihydropyrimidine-5-carboxamido)isonicotinic acid] | 0.15 µM | 0.15 µM | 2.43 µM | 2.43 µM | <1 1 × 10^−6 cm/sec | >81 µg/mL | >30 m |  |  |  | 
CC1=C(C(=O)Nc2ccc(N3CCNCC3)cc2)C(c2ccccc2Cl)N=C(Nc2nc3ccccc3o2)N1 (centres unmarked) [Compound 190, 2-(benzo[d]oxazol-2-ylamino)-4-(2-chlorophenyl)-6-methyl-N-(4-(piperazin-1-yl)phenyl)-1,4-dihydropyrimidine-5-carboxamide] | 68.5 µM | 68.5 µM | 48.5 µM | 48.5 µM |  |  |  |  | 2.416 µg/mL | 8.634 m | Papp ([3]; PAMPA, Perm. (1 × 10^−6 cm/sec)): 894 ×10⁻⁶ cm/s
CC1=C(C(=O)Nc2cc(C(=O)O)ccn2)C(c2ccc(N3CCCCC3)cc2Cl)N=C(Nc2nc3ccc(F)cc3o2)N1 (centres unmarked) [Compound 58, 2-(4-(2-chloro-4-(piperidin-1-yl)phenyl)-2-((6-fluorobenzo[d]oxazol-2-yl)amino)-6-methyl-1,4-dihydropyrimidine-5-carboxamido)isonicotinic acid] | 1.22 µM |  | 12.2 µM | 12.2 µM | 1.35 1 × 10^−6 cm/sec | 1.92 µg/mL | >30 m |  |  |  | 
CC1=C(C(=O)Nc2nncs2)C2(CCOC2)N=C(Nc2nc3ccccc3o2)N1 (centres unmarked) [Compound 260, 7-(benzo[d]oxazol-2-ylamino)-9-methyl-N-(1,3,4-thiadiazol-2-yl)-2-oxa-6,8-diazaspiro[4.5]deca-6,9-diene-10-carboxamide] |  |  |  |  |  |  |  | 102.7 1 × 10^−6 cm/sec | 37.9 µg/mL |  | IC50 [1, 10]: 12.2 µM; mGALK (μM) ([2]; recombinant mouse GALK1, Kinase-Glo Plus ATP depletion, bracketed figure in the cell, e.g. (−1.2), is not defined in the text shown): in- active; Metab. Stabil. (m) [5, 12]: >30 m
CC1=C(C(=O)Nc2cc(C(=O)O)ccn2)[C@H](c2ccc(C)cc2Cl)N=C(Nc2nc3ccc(F)cc3o2)N1 [Compound 55, (R)-2-(4-(2-chloro-4-methylphenyl)-2-((6-fluorobenzo[d]oxazol-2-yl)amino)-6-methyl-1,4-dihydropyrimidine-5-carboxamido)isonicotinic acid] | 15 µM | 0.15 µM | 1.37 µM | 1.37 µM | <1 1 × 10^−6 cm/sec | >79 µg/mL | >30 m |  |  |  | 
CC1=C(C(=O)Nc2ccc(CN3CCOCC3)cc2)C(c2ccccc2Cl)N=C(Nc2nc3ccccc3o2)N1 (centres unmarked) [Compound 183, 2-(benzo[d]oxazol-2-ylamino)-4-(2-chlorophenyl)-6-methyl-N-(4-(morpholinomethyl)phenyl)-1,4-dihydropyrimidine-5-carboxamide] | 5.44 µM | 5.44 µM | 9.68 µM | 9.68 µM |  |  |  | 120.4 1 × 10^−6 cm/sec | <1 µg/mL | 22.3 m | 
CC1=C(C(=O)Nc2cc(C(=O)O)ccn2)C(c2ccc(C)cc2Cl)N=C(Nc2nc3cccnc3o2)N1 (centres unmarked) [Compound 108, 2-(4-(2-chloro-4-methylphenyl)-6-methyl-2-(oxazolo[5,4-b]pyridin-2-ylamino)-1,4-dihydropyrimidine-5-carboxamido)isonicotinic acid] | 12.2 µM | 12.2 µM |  |  | <1 1 × 10^−6 cm/sec | >51 µg/mL | >30 m |  |  |  | mGALK IC50 ([2]; Tables 2-15, 35 μM ATP, 100 μM galactose, 1 h, bracketed figure after some values is undefined and not reported): inactive; mGALK (μM) ([2]; recombinant mouse GALK1, Kinase-Glo Plus ATP depletion): in- active
CC1=C(C(=O)NCc2ccc(CO)cc2)C(c2ccccc2Cl)N=C(Nc2nc3ccccc3o2)N1 (centres unmarked) [Compound 228, 2-(benzo[d]oxazol-2-ylamino)-4-(2-chlorophenyl)-N-(4-(hydroxymethyl)benzyl)-6-methyl-1,4-dihydropyrimidine-5-carboxamide] | 6.85 µM |  | 15.3 µM | 15.3 µM |  |  |  | 867.3 1 × 10^−6 cm/sec | <1 µg/mL | 13.8241 m | 
COC(=O)c1ccc(NC(=O)C2=C(C)NC(Nc3nc4ccccc4o3)=NC2c2ccccc2Cl)cn1 (centres unmarked) [Compound 166, methyl 5-(2-(benzo[d]oxazol-2-ylamino)-4-(2-chlorophenyl)-6-methyl-1,4-dihydropyrimidine-5-carboxamido)picolinate] |  | 6.11 µM |  | 6.85 µM |  |  |  | 96.1 1 × 10^−6 cm/sec | <1 µg/mL | 4.678 m | 
COc1ccc(C2N=C(Nc3nc4ccccc4o3)NC(C)=C2C(=O)Nc2nncs2)c(Cl)c1 (centres unmarked) [Compound 266, 2-(benzo[d]oxazol-2-ylamino)-4-(2-chloro-4-methoxyphenyl)-6-methyl-N-(1,3,4-thiadiazol-2-yl)-1,4-dihydropyrimidine-5-carboxamide] |  |  |  |  |  |  |  | 31.9 1 × 10^−6 cm/sec | <1 µg/mL |  | IC50 [1, 10]: 3.85 µM; IC50 [2, 11]: 5.44 µM; Metab. Stabil. (m) [5, 12]: >30 m
CC1=C(C(=O)NCc2cnn(C)c2)C(c2ccc(Cl)cc2Cl)N=C(Nc2nc3ccc(F)c(N)c3o2)N1 (centres unmarked) [Compound 127, 2-((7-amino-6-fluorobenzo[d]oxazol-2-yl)amino)-4-(2,4-dichlorophenyl)-6-methyl-N-((1-methyl-1H-pyrazol-4-yl)methyl)-1,4-dihydropyrimidine-5-carboxamide] |  | 0.22 µM |  | 1.93 µM |  |  |  | 166.7 1 × 10^−6 cm/sec | 5.9 µg/mL | >30 m | 
CC1=C(C(=O)NCc2cnn(C)c2)C(c2ccc(C)cc2Cl)N=C(Nc2nc3ccc(F)c(C(=O)O)c3o2)N1 (centres unmarked) [Compound 128, 2-((4-(2-chloro-4-methylphenyl)-6-methyl-5-(((1-methyl-1H-pyrazol-4-yl)methyl)carbamoyl)-1,4-dihydropyrimidin-2-yl)amino)-6-fluorobenzo[d]oxazole-7-carboxylic acid] |  | 17.2 µM |  | 21.7 µM |  |  |  | <1 1 × 10^−6 cm/sec | 26.3 µg/mL | >30 m | 
CC1=C(C(=O)Nc2cc(C(=O)O)ccn2)[C@@H](c2ccc(C)cc2Cl)N=C(Nc2nc3cccc(N)c3o2)N1 [Compound 84, (S)-2-(2-((7-aminobenzo[d]oxazol-2-yl)amino)-4-(2-chloro-4-methylphenyl)-6-methyl-1,4-dihydropyrimidine-5-carboxamido)isonicotinic acid] | 3.43 µM | 3.43 µM | 21.7 µM | 21.7 µM | <1 1 × 10^−6 cm/sec | >78 µg/mL | >30 m |  |  |  | 
